Measured values from patent publication US20220249441A1, “Homodimeric Tobramycin Adjuvant Repurposes Novobiocin as an Effective Antibacterial Agent Against Gram-Negative Bacteria” (priority 2019, published 2022).
≈ marks a conversion by molar mass, not a printed value.

Key:
K. pneumoniae 116381 = experiment: Time-kill assay; format: cell-based, Klebsiella pneumoniae; details: LB media, novobiocin 32 μg/ml, compound 1 7.1 μM, 24 h
Experimental: (§1) Time-kill Assay. […] At specific time intervals (0, 1, 3, 6, 9, and 24 h), 100 μl was taken from each sample, serially diluted in sterile PBS, plated on LB agar plates, and incubated at 37° C. in a humid 5% CO2-enriched atmosphere. Bacterial colonies were counted after 20 h of incubation.

P. aeruginosa PAO1 [1] = experiment: Time-kill assay; format: cell-based, Pseudomonas aeruginosa; details: LB media, novobiocin 32 μg/ml, compound 1 7.1 μM, 24 h
Experimental: as §1

[2] = system: A. baumannii ATCC 17978 and resistant mutants; experiment: microbe, parasite or virus in culture; format: cell-based, Acinetobacter baumannii; details: Acinetobacter baumannii
A. baumannii ATCC 17978 = experiment: Time-kill assay; format: cell-based, Acinetobacter baumannii; details: novobiocin 32 μg/ml, after 24 h
Experimental: as §1

[3] = system: P. aeruginosa PAO1 and efflux deficient mutants, MDR/XDR isolates; experiment: microbe, parasite or virus in culture; format: cell-based, Pseudomonas aeruginosa
Experimental: Antimicrobial Susceptibility Assay. The in vitro antimicrobial activity of all compounds/antibiotics against a panel of bacteria was evaluated by microbroth dilution method in accordance with the Clinical and Laboratory Standards Institute (CLSI) guidelines (using ATCC strains as quality control strains) (54). […] The broth with or without bacterial cells was used as positive or negative control, respectively.

P. aeruginosa PAO1 [4] = experiment: Outer membrane permeabilization assay (NPN uptake); format: cell-based, Pseudomonas aeruginosa
Experimental: Outer Membrane Permeabilization Assay. […] Briefly, an overnight grown P. aeruginosa PAO1 culture was subcultured (1 in 100) in fresh LB broth and grown to a mid-logarithmic phase (approximately 2 h, OD600=0.5-0.6). The cells were harvested by centrifuging for 10 min at 1000 g and room temperature, washed twice in PBS, and resuspended in half volume of PBS. This suspension was used in standard microtiter plate assay. […] PMBN, a known outer membrane permeabilizer, served as a positive control while cells +NPN (without test compounds) served as a negative control. Four independent replicates were conducted, and the data were corrected for any background fluorescence.

SMILES | time-kill outcome (K. pneumoniae 116381) | time-kill outcome (P. aeruginosa PAO1 [1]) | MIC ([2]; ATCC17978, 18 h, Mutant C (seven serial passages, sub-MICs novobiocin + 7.1 μM compound 1)) [µg/mL] | MIC ([2]; ATCC17978, Mutant A (seven serial passages, sub-MICs novobiocin)) [µg/mL] | MIC ([2]; ATCC17978, Mutant B (seven serial passages, sub-MICs colistin)) [µg/mL] | time-kill outcome (A. baumannii ATCC 17978) | MIC of Compound 1 ([3]; PAO1 (wild-type)) [µg/mL] | MIC of Compound 1 ([3]; PAO200 (efflux-deficient)) [µg/mL] | MIC of Compound 1 ([3]; PAO750 (efflux-deficient)) [µg/mL] | outer membrane permeabilization (NPN fluorescence) (P. aeruginosa PAO1 [4]) | NPN fluorescence relative to PMBN (8 μg/ml) (P. aeruginosa PAO1 [4]; compound 1 at 16 μg/ml)
CO[C@@H]1[C@@H](OC(N)=O)[C@@H](O)[C@H](Oc2ccc3c(O)c(NC(=O)c4ccc(O)c(CC=C(C)C)c4)c(=O)oc3c2C)OC1(C)C [Novobiocin] | bacterial growth identical to their respective controls | bacterial growth identical to their respective controls | 128 | 2050 (≈ 3.34 mM) | < 0.031 | bacteriostatic | – | – | – | – | –
NC[C@H]1O[C@H](O[C@H]2[C@H](OCCCCc3cn(CCCCO[C@@H]4[C@@H](O[C@H]5O[C@H](CO)[C@@H](O)[C@H](N)[C@H]5O)[C@H](N)C[C@H](N)[C@H]4O[C@H]4O[C@H](CN)[C@@H](O)C[C@H]4N)nn3)[C@@H](O[C@H]3O[C@H](CO)[C@@H](O)[C@H](N)[C@H]3O)[C@H](N)C[C@@H]2N)[C@H](N)C[C@@H]1O.O=C(O)C(F)(F)F.O=C(O)C(F)(F)F.O=C(O)C(F)(F)F.O=C(O)C(F)(F)F.O=C(O)C(F)(F)F.O=C(O)C(F)(F)F.O=C(O)C(F)(F)F.O=C(O)C(F)(F)F.O=C(O)C(F)(F)F.O=C(O)C(F)(F)F [Compound 1, Tobramycin Homodimer 1] | – | – | – | – | – | – | >128 | >128 | >128 | dose-dependent | increased fluorescence
